Read-outs that look alike come from different tables or passages of the source.
Experiments:
U937 = experiment: Growth inhibition of leukaemia line, continuous exposure, MTT staining; assay type: cell-based; conditions: Homo sapiens, U-937
Experimental: (§1) Tumour cell lines were cultured in 96-well plates. […] Primary cultures were incubated at 37°C in sealed perspex boxes containing a humidified atmosphere of 5% CO2 and 5% O2 in nitrogen for 7 days. 5-Methyl-[^3H]-thymidine (20 Ci.mmol^-1; 0.04 µCi per well), thymidine and 5-fluorodeoxyuridine (each at final concentrations of 0.5 µM) were added in medium to cultures (20 µl per well) 24 h before terminating the cultures.
(§2) 1989, 81:1088-1092, where growth, as indicated by staining or thymidine incorporation, corresponded to 50% of that of the control cultures.
(§3) The effect of DACA on the growth of cultured cells was assessed by continuous drug exposure. […] These values were similar to those of other human leukaemia cell lines, which ranged from 290 to 760 nM (CEM-CCRF, 410 nM; MOLT-4, 290 nM; Daudi, 400 nM; Raji, 370 nM, U937, 590 nM; HL-60, 620 nM; K-562, 760 nM). Four multidrug-resistant cell lines, developed from JL and JB1 by in vitro exposure to increasing concentrations of doxorubicin (LD and B1D) or amsacrine (LA and B1A) (Finlay G.J., et al., J. Natl. Cancer Inst. 1990, 82, 662-667, Snow K., et al., Br. J. Cancer 1991, 63, 17-28) were tested.

Raji = experiment: as above; assay type: cell-based; conditions: Homo sapiens
Experimental: as §1, §2, §3

[1] = system: human Jurkat T cell leukaemia line, diploid (L); experiment: as above; assay type: cell-based; conditions: continuous drug exposure
Experimental: as §1, §2, §3

MOLT-4 = experiment: as above; assay type: cell-based; conditions: Homo sapiens
Experimental: as §1, §2, §3

HL-60 = experiment: as above; assay type: cell-based; conditions: Homo sapiens
Experimental: as §1, §2, §3

[2] = Pharmacokinetic and tissue distribution studies (tritium label, HPLC); assay type: in vivo; conditions: for tissue concentration: 1 h after intraperitoneal 400 µmol/kg, HPLC; for AUC: ip, 400 umol/kg, intraperitoneal 400 µmol/kg
Excerpt: We believe that administration of DACA at the new divided dose-high constituent dose frequency regime mentioned above will be helpful in combating brain tumours.

[3] = system: other human leukaemia cell lines; experiment: Growth inhibition of leukaemia lines, continuous exposure, MTT staining; assay type: cell-based; conditions: range over other human leukaemia cell lines
Experimental: as §1, §2, §3

CN(C)CCNC(=O)c1cccc2cc3ccccc3nc12 [DACA, N-[2-(dimethylamino)ethyl]acridine-4-carboxamide]
IC50 (U937): 590 nM
IC50 (Raji): 370 nM
IC50 [1]: 380 nM
IC50 (MOLT-4): 290 nM
IC50 (HL-60): 620 nM
tissue concentration ([2]; brain): 45 µmol/kg
tissue concentration ([2]; heart): 57 µmol/kg
AUC ([2]; brain, read-out: AUC): 218 µM·h
AUC ([2]; heart, read-out: AUC): 147 µM·h
AUC ([2]; kidney, read-out: AUC): 492 µM·h
AUC ([2]; liver, read-out: AUC): 547 µM·h
AUC ([2]; plasma, read-out: plasma AUC): 26.6 µM·h
tissue concentration ([2]; kidney): 139 µmol/kg
tissue concentration ([2]; liver): 185 µmol/kg
elimination t1/2 ([2]; tritium-labelled DACA, tissues including brain): 37 to 176 h
IC50 [3]: 290 to 760 nM

Source: EP0642343B1, “Acridine carboxamides for the treatment of cancer” (XENOVA LIMITED, priority 1992, dated 1993)
